{
  "source": "patent US5795861A",
  "about": "“Methods for regulating gastrointestinal motility” (Amylin Pharmaceuticals Inc., priority 1995, dated 1998)",
  "key": {"[1]": {"tested_on": "non-diabetic Harlan Sprague Dawley rats", "assay": "gastric emptying of Phenol Red methylcellulose gel, normal rats", "format": "in vivo, rat", "settings": "for ED50, suppression of gastric emptying: normal rats fasted 20 hours, s.c. 5 min before gavage", "text": "(§1) Twenty minutes after gavage, rats were anesthetized using 5% halothane, the stomach exposed and clamped at the pyloric and lower esophageal sphincters using artery forceps, removed and opened into an alkaline solution which was made up to a fixed volume. Stomach content was derived from the intensity of the phenol red in the alkaline solution, measured by absorbance at a wavelength of 560 nm. In most experiments, the stomach was clear. In other experiments, particulate gastric contents were centrifuged to clear the solution for absorbance measurements. Where the diluted gastric contents remained turbid, the spectroscopic absorbance due to Phenol Red was derived as the difference between that present in alkaline vs acidified diluent. In separate experiments on 7 rats, the stomach and small intestine were both excised and opened into an alkaline solution. The quantity of phenol red that could be recovered from the upper gastrointestinal tract within 20 minutes of gavage was 89±4%. To account for a maximal dye recovery of less than 100%, stomach contents remaining after 20 min were expressed as a fraction of the gastric contents recovered from control rats sacrificed immediately after gavage in the same experiment.\nSince ED50 is log-normally distributed, it is expressed i standard error of the logarithm. Pairwise comparisons were performed using one-way analysis of variance and the Student-Newman-Keuls multiple comparisons test (Instat v2.0, GraphPad Software, San Diego) using P<0.05 as the level of significance."}, "anesthetized rats [2]": {"tested_on": "anesthetized rats", "assay": "glucose bolus into stomach or duodenum during amylin infusion", "format": "in vivo", "settings": "rat amylin 0.35 nm/kg/min infusion", "text": "(§2) After one hour of amylin infusion, a bolus of glucose (lg/kg) was infused either into the stomach or the duodenum through a tube inserted through the esophagus. Because-the studies involved anesthetized rather than conscious rats, they are not considered in analyzing gastric motility, e.g., rate of emptying of stomach contents into the duodenum. However, the studies indicate that absorption of glucose from the duodenum into the blood was not delayed by amylin. […] In anesthetized rats, a segment of small bowel, still connected to the animal via its blood supply, was exteriorized and cannulae inserted so that the small bowel could be perfused with glucosed solutions of controlled composition. The animals were cannulated also via an artery (for blood sampling) and via a vein (for infusion of amylin, insulin and glucose). The lumen was perfused with a tritium-labelled glucose solution. The passage of glucose from the lumen of the gut into the rat was measured by the appearance of the tritium label in the plasma. The supposition that such appearance of tritium in the plasma was indeed measuring glucose uptake from the gut was tested by administration of the glucose transport blocker, phloridzin. […]"}, "[3]": {"tested_on": "rats, rabbits, humans with Paget's disease", "settings": "cited from earlier work"}, "intact rats": {"tested_on": "intact rats", "settings": "given subcutaneously, no disturbance of blood pressure"}, "anesthetized rats [4]": {"tested_on": "anesthetized rats", "assay": "perfused exteriorized small bowel, passage of tritium-labelled glucose into plasma", "format": "in vivo, rat", "settings": "plasma glucose clamped", "text": "as §2"}, "Mongrel dogs": {"tested_on": "Mongrel dogs", "assay": "oral glucose tolerance test in dogs during amylin ± AC-0253 infusion", "format": "in vivo", "settings": "for effects on plasma lactate: oral glucose load", "method": "Mongrel dogs (9 males, 12-17 kg wt. range) were used for this study. All animals were fasted overnight prior to each study. Each animal served as its own control for all protocols. Animals were equilibrated for 30-60 minutes prior to the start of each protocol.\n25% glucose (1 gm/kg) was administered by mouth at t=0 minutes. […] Samples for insulin, glucose and lactate were obtained at 15 minute intervals from t=-45 to t=180 minutes."}, "[5]": {"assay": "plasma amylin concentration after subcutaneous rat amylin (immuno-enzymometric assay)", "format": "in vivo", "settings": "sc", "method": "The plasma from 250 μL samples collected at 10 min intervals was separated and frozen at -20° C. for analysis by a 2-site immuno-enzymometric assay developed in-house.\nTo perform the immunoassay, black microtiter plates (Dynatech, Chantilly, Va.) were coated with the antibody F024-4.4 [Phelps J L, Blase E, Koda J E, unpublished] by overnight incubation at 4° C. with 20 ug antibody per mL in 50 mM carbonate at pH 9.6. Plates were washed with 0.05M Tris/0.15M sodium chloride/0.02% sodium azide/0.1% Tween 20 (TBS/Tween), and blocked with 1.0% nonfat dry milk powder in the same carbonate buffer for one hour at room temperature. Samples were thawed on ice, and diluted in 4% BSA/200mg/dl bovine cholesterol supertrate (Miles Pentex reagents, Miles Laboratories, Kankakee Ill.) if necessary. Samples or standards were added to the coated and blocked plates and incubated for one hour at room temperature. After washing, the F025-27 detection antibody conjugated to alkaline phosphatase was added. Antibody-enzyme coupling was performed using the maleimide alkaline phosphatase conjugation kit from Pierce Immunochemical Co (Rockford Ill.). The conjugate was incubated for three hours at room temperature, after which plates were washed thoroughly with Tris buffered saline. Bound enzyme was detected by incubation of the plates with the fluorescent substrate 4-methylumbelliferyl phosphate at 50 ug/ml in 1M diethanolamine/0.5 mM MgCl, pH 9.8 for 40 minutes at room temperature. The fluorescent signal was measured with a Dynatech Microfluor plate reader, and data analyzed on Multicalc software (Wallac, Gaithersburg Md.). […] When performed in this manner, the assay has a minimum detectable concentration of 2 pM."}, "diabetic BB rats": {"tested_on": "diabetic BB rats", "assay": "gastric emptying of Phenol Red methylcellulose gel, diabetic rats", "format": "in vivo, rat", "settings": "for ED50 for suppression of gastric emptying: diabetic rats fasted 6 hours, s.c. 5 min before gavage", "method": "When BB rats were confirmed as being diabetic by glycosuria on at least 2 days, they were treated with daily s.c. injections of ultralente recombinant human insulin (Humulin-U, Eli Lilly, Ind.). Insulin therapy was aimed at maintaining glucose but minimizing ketones in the urine, in order to avoid hypoglycemic deaths. In fact, glycosuria was present in 88% of measurements and ketonuria in 52%. The average duration of diabetes was 53±5 days, and daily insulin requirements were 4.7±0.3 units. All animals were housed at 22.7±0.8 C in a 12:12 hour light:dark cycle (experiments being performed during the light cycle) and were fed and watered ad libitum (Diet LM-485, Teklad, Madison, Wis.).\nThe determination of gastric emptying by the method described below has usually been performed after a fast of ~20 hours to ensure that the stomach contained no chyme that would interfere with spectrophotometric absorbance measurements. However, diabetic rats treated with Ultralente insulin could not be fasted for 20 hours. […] Such animals were therefore. fasted for only 6 hours before measurement of gastric emptying. Non-diabetic rats were deprived of food for either 6 or 20 hours prior to experimentation. We have noted that even non-diabetic BB rats have elevated glycated hemoglobin concentrations, possibly indicating subclinical insulitis. Both non-diabetic Harlan Sprague Dawley rats and non-diabetic BB rats animals were therefore used in comparisons with diabetic rats. Thus there were 5 treatment groups:\nas §1, with “experiment. […]” for “experiment.”"}, "[6]": {"tested_on": "motility of the gastro-intestinal tract", "settings": "0.2 to 2 mgs intravenously; cited from earlier work"}, "corpulent LA/N rats": {"tested_on": "corpulent LA/N rats", "assay": "uptake of ingested labelled glucose load after amylin antagonist preinjection", "format": "in vivo, rat", "settings": "for acceleration of appearance of glucose-derived tritium in the plasma: 3 μg s.c. 3 minutes before gavage", "method": "Uptake of an ingested labelled glucose load was measured in 11 conscious 24-hr fasted corpulent (500-600 g) LA/N rats on 2 occasions, 14 days apart."}, "fed rats": {"tested_on": "fed rats", "settings": "preinfusion of antagonist; cited from earlier work"}},
  "note": "No end group written: not given here.",
  "data": [
    {"compound": "CC(C)C[C@H](NC(=O)[C@H](CC(N)=O)NC(=O)[C@H](CC(N)=O)NC(=O)[C@H](CO)NC(=O)[C@H](CO)NC(=O)[C@H](CCCNC(=N)N)NC(=O)[C@@H](NC(=O)[C@H](CC(C)C)NC(=O)[C@H](Cc1ccccc1)NC(=O)[C@H](CC(N)=O)NC(=O)[C@H](C)NC(=O)[C@H](CC(C)C)NC(=O)[C@H](CCCNC(=N)N)NC(=O)[C@H](CCC(N)=O)NC(=O)[C@@H](NC(=O)[C@H](C)NC(=O)[C@@H]1CSSC[C@H](NC(=O)[C@@H](N)CCCCN)C(=O)N[C@@H](CC(N)=O)C(=O)N[C@@H]([C@@H](C)O)C(=O)N[C@@H](C)C(=O)N[C@@H]([C@@H](C)O)C(=O)N1)[C@@H](C)O)C(C)C)C(=O)NCC(=O)N1CCC[C@H]1C(=O)N[C@H](C(=O)N[C@@H](CC(C)C)C(=O)N1CCC[C@H]1C(=O)N1CCC[C@H]1C(=O)N[C@H](C(=O)N[C@@H](CC(N)=O)C(=O)N[C@H](C(=O)NCC(=O)N[C@@H](CO)C(=O)N[C@@H](CC(N)=O)C(=O)N[C@H](C(=O)N[C@@H](Cc1ccc(O)cc1)C(N)=O)[C@@H](C)O)C(C)C)[C@@H](C)O)C(C)C", "note": "[amylin]", "values": [
      {"measurement": "ED50 of inhibition of gastric emptying (summary statement)", "setting": "[1]; normal rats", "value": "~ 1 μg"},
      {"measurement": "ED50, suppression of gastric emptying", "setting": "[1]", "value": "0.60 nmole amylin/kg body weight"},
      {"measurement": "ED50, suppression of gastric emptying", "setting": "[1]; ±0.19 log units", "value": 0.43, "unit": "µg"},
      {"measurement": "absorption of glucose from the duodenum into the blood", "setting": "anesthetized rats [2]", "value": "not delayed"},
      {"measurement": "lowering of plasma calcium", "setting": "[3]", "value": "up to 20%"},
      {"measurement": "plasma renin activity", "setting": "intact rats", "value": "markedly increases"},
      {"measurement": "passage of tritium-labelled glucose from the gut lumen into the plasma", "setting": "anesthetized rats [4]", "value": "had no effect"},
      {"measurement": "rate of rise and peak of plasma glucose after oral glucose load", "setting": "Mongrel dogs; amylin infusion 50, 100 and 300 pmol/kg/min, 25% glucose 1 gm/kg by mouth", "value": "reduced both the rate of rise in plasma glucose as well as the peak plasma glucose"},
      {"measurement": "effects on plasma lactate", "setting": "Mongrel dogs", "value": "unremarkable"},
      {"measurement": "level at time molar at 10 min", "setting": "[5]; 1 ug, 1 μg s.c.", "value": "0.066 ± 0.01", "unit": "nM"},
      {"measurement": "level at time molar at 10 min", "setting": "[5]; 10 ug, 10 μg s.c. bolus", "value": "0.347 ± 0.043", "unit": "nM"},
      {"measurement": "level at time molar at 20 min", "setting": "[5]; 10 ug, 10 μg s.c. bolus, 20 min", "value": "0.301 ± 0.057", "unit": "nM"},
      {"measurement": "dose that would restore gastric emptying to the rate of normal rats not administered amylin", "setting": "diabetic BB rats; diabetic rat, estimated from fitted curves of FIG. 14", "value": "~ 2 μg"},
      {"measurement": "ED50 of inhibition of gastric emptying (summary statement)", "setting": "diabetic BB rats; diabetic rats", "value": "~ 1 μg"},
      {"measurement": "ED50 for suppression of gastric emptying", "setting": "diabetic BB rats", "value": 2.3, "unit": "nmol/kg"},
      {"measurement": "ED50 for suppression of gastric emptying", "setting": "diabetic BB rats; ±0.18 log units", "value": 2.2, "unit": "µg"}
    ]},
    {"compound": "glucagon: polypeptide hormone produced by the alpha cells of the pancreatic islets; administered as glucagon hydrochloride", "values": [
      {"measurement": "onset of effect", "setting": "[6]", "value": "within one minute"}
    ]},
    {"compound": "acetyl-^11,18 Arg, ^30 Arg, ^32 Tyr-^9-32 calcitonin (salmon) [AC-0253]", "values": [
      {"measurement": "changes in plasma glucose, antagonist alone", "setting": "Mongrel dogs; AC-0253 alone", "value": "has no effect"},
      {"measurement": "reversal of amylin-induced changes in plasma glucose", "setting": "Mongrel dogs; AC-0253 up to 1500 pmol/kg/min with amylin 50 pmol/kg/min", "value": "does not completely reverse the effects of amylin"},
      {"measurement": "effects on plasma lactate", "setting": "Mongrel dogs", "value": "unremarkable"}
    ]},
    {"compound": "O=C(CCc1ccc(O)cc1)c1c(O)cc(O)cc1O[C@@H]1O[C@H](CO)[C@@H](O)[C@H](O)[C@H]1O", "note": "[Phloridzin, reference compound]", "values": [
      {"measurement": "passage of tritium-labelled glucose from the gut lumen into the plasma", "setting": "anesthetized rats [4]", "value": "largely prevented the transit of label from the gut lumen into the plasma"}
    ]},
    {"compound": "acetyl-^10 Asn^32 Tyr^8-32 salmon calcitonin (Ac-VLNKLSQELHKLQTYPRTNTGSGTY; ends and bridges not checked) [AC-0187]", "values": [
      {"measurement": "plasma glucose 60 minutes after glucose gavage", "setting": "corpulent LA/N rats; 3 μg s.c.", "value": "6.89 ± 0.28", "unit": "mM"},
      {"measurement": "acceleration of appearance of glucose-derived tritium in the plasma", "setting": "corpulent LA/N rats; 15 minutes post-gavage", "value": 48, "unit": "%"},
      {"measurement": "acceleration of appearance of glucose-derived tritium in the plasma", "setting": "corpulent LA/N rats; 30 minutes post-gavage", "value": 45, "unit": "%"},
      {"measurement": "plasma glucose 15 minutes after gavage", "setting": "corpulent LA/N rats; 3 μg s.c., gavage with 0.5 g glucose", "value": "8.33 ± 0.28", "unit": "mM"},
      {"measurement": "plasma glucose before gavage", "setting": "corpulent LA/N rats; 3 μg s.c., starting value", "value": "5.89 ± 0.17", "unit": "mM"}
    ]},
    {"compound": "^8-37 hCGRP: demonstrated amylin blocker in vitro and in vivo; also an effective CGRP antagonist (VTHRLAGLLSRSGGVVKNFVPTNVGSKAF)", "values": [
      {"measurement": "glucose concentration following arginine infusion", "setting": "fed rats", "value": "subsequent fall in glucose concentration to well below the basal level"},
      {"measurement": "insulin concentration 30 minutes following the arginine infusion vs normal controls", "setting": "fed rats", "value": "almost twice as high"}
    ]}
  ]
}
